Where two headings read alike, the source gives them in different places.
How the values were obtained:
adults with ADHD = settings: for group outcome of combination therapy: adults with ADHD
Method: In the clinical setting a number of adults with ADHD experienced a combination therapy of stimulant medication (dexamphetamine) in combination with sodium valproate (VPA). The initial dosages used were from 15 to 70 mg/day of dexamphetamine and from 100 to 700 mg/day of VPA (Epilim) (=approximately 2 to 10 mg/kg/day).
The determination of the dose for the dexamphetamine was undertaken in a clinical sensitive open label manner. The dose was titrated upwards dependent on the clinical response and the freedom from side-effects. The dose range was between 15 and 70 mg a day. The frequency of the dosing also varied dependent upon the clinical response. The usual dose interval was between two to four hours. This dosing adjustment took place prior to the commencement of the sodium valproate. The sodium valproate medication was initiated once a day at 50 mg tablet or elixir and titrated upwards dependent on response, but not more than one increase every three days. The dose was given as a once or twice a day regime. During the titration phase, if clinically possible, no other adjustments to the pharmacotherapy were undertaken.

[1] = system: mood stabilisation or epileptic symptoms or events; settings: cited from earlier work; for Minimum Dose/day effective for mood stabilisation or treatment of epileptic symptoms or events: usual minimum anti-convulsant dose per day
[2] = system: individuals with MCI or dementia; settings: cited from earlier work; for effect in mild cognitive impairment (reports): individuals with MCI
[3] = system: individuals with developmental dyspraxia / poor coordination; test: Treatment of developmental dyspraxia, clinical observation; assay type: in vivo, human; settings: person, ADHD
Description: Many of the individuals treated at this clinic, with a diagnosis of ADHD and/or pervasive development disorder such Asperger's Syndrome or autism also present with symptoms consistent with a diagnosis of a developmental coordination disorder. They are often described as ‘unco’ (unco-ordinated) by their peers and experience victimization, poor self-esteem and frustration as a consequence of their poor coordination. […] Individuals have described a sense of having more time to coordinate movements and to understand and integrate their own activity appropriately within a team sport such as soccer, which has previously eluded them. Individuals have felt frustration at being able to practise repeatedly an activity or skill only to be unable to put it into practice when required, within the play of a match. It is proposed that individuals were previously unable to process and plan their own coordination but remain aware of the general activity in which they were participating.

[4] = system: Parkinson's disease patient; test: Parkinson's disease clinical example with infrared eye tracking; assay type: in vivo, human; settings: 12.5 mg phenytoin
Description: Clinical example person with a ten-year history of Parkinson's disease. Moderate to severe motor symptoms with muscle rigidity, resting tremor, brady-[…] slowing of speech. No evidence of dementia or depression. […] An enhanced initiation of movement. Also described an improved perception of efficiency in thought and action. No evidence of loss of efficacy of medication. Using infrared eye tracking technology it was noted that the fixations and […] movements were enhanced after treatment. Measurements were undertaken both whilst silent and speaking with and without eye contact with the investigator. Based on these investigations in Parkinson's disease and also in mild cognitive impairment and dementia we consider that condition is described as Parkinson plus diseases, including multiple system atrophy (MSA), progressive supranuclear palsy (PSP), corticobasal degeneration (CBD), and dementia with Lewy bodies (DLB)s may also benefit from the addition of a low dose AED with and without a psychostimulant.

[5] = system: individuals with MCI or dementia; test: Mild cognitive impairment and dementia, clinical cases (Developmental Eye Movement test, Alzheimer's Quick Test); assay type: in vivo, human; settings: person
Description: A married person with a history of good cognitive functioning until last 4-5 yrs when noted by both their spouse and themself to becoming increasingly socially withdrawn primarily because of the difficulty in listening without distraction during social interaction, no known childhood or adult history of prior attentional or impulsive disorders. It has been clinically observed by the inventor that individuals treated with low dose antiepileptic were enhanced in their ability to discriminate irrelevant from the relevant sound was enhanced. […] On ceasing the medication there was an initial improvement again over the preceding 3 to 7 days followed by a loss of the therapeutic effects and returned to their pre-medication function. On the ressumption of the 12.5 mg phenytoin there was a return of the improved function. On this second occasion they were more aware of the benefits and also the gradual return of the detrimental clinic effects. During the clinical assessment it was noted that they had more flexibility in their conversation and more natural use of non-verbal cues, there was also enhancement of their egocentric gaze. […] These benefits were also noted by their spouse. […] Again these medications were ceased resulting in a loss of associated benefits. With each trial of medication they became more apparent to the patient and their spouse of the benefits of the therapy. They attempted whilst not taking the medication to communicate and follow the conversation in a way that they had been able to whilst on treatment. They found when attempting to do so they became mentally exhausted and unable to sustain the effort required for the interaction. The improvements noted clinically and also recorded using the Developmental Eye Movement test and a measure of parietal function the Alzheimer's Quick Test. Married person diagnosed with fronto-temporal dementia. they had been assessed by neuropsychologist, and geriatrician and psychiatrist to confirm this diagnosis. […] They then relied on others to make decisions for […]. They had gradually become socially disengaged finding such interactions distressing and demanding. […] Despite ongoing difficulties of word finding they were able to socially interact more spontaneously than they had done for many years. And have confidence in areas of conversation that they previously would have avoided. […] On two occasions the medication was withdrawn and then reintroduced, due to the experimental nature of treatment and concern that there might be a significant placebo effect. […] Following the subsequent reduction there was a return of the improvement previously noted.

[6] = system: adherence to medication regime; settings: person, anxiety and depression, no ADHD; 25 mg phenytoin
Description: As a result, taking medication becomes an automatic activity which doesn't require a high level of attention and motivation.
The individual experiences an improvement in the ability to efficiently and effectively attend to a task in hand, without also needing to expend extra cognitive effort to remember which medication to take and at what times.

[7] = system: individual not meeting the full criteria for ADHD; test: Subthreshold ADHD, clinical case (Example 21); assay type: in vivo, human; settings: person; topiramate 12.5 mg daily added to dexamphetamine 2.5 mg daily
[8] = system: patients with an eating disorder and ADHD; test: Treatment of eating disorders, clinical observation; settings: person; 25 mg topiramate added to 45 mg extended release methylphenidate
Description: The use of sodium valproate at low dose levels can then be titrated to a level that does effectively control these thoughts. This may or may not be at the therapeutic dose used in the treatment of bipolar disorder.

[9] = system: patients with substance addiction; test: Treatment of addictions, clinical observation; assay type: in vivo, human; settings: person; dexamphetamine alone over 6 months
Description: Addiction to amphetamines poses a number of unique challenges.

[10] = system: patients with substance addiction; settings: psychostimulants alone; cited from earlier work
[11] = fronto-temporal dementia, 25 mg phenytoin

For `NC(=O)N1c2ccccc2C=Cc2ccccc21` [Carbamazepine], the “clinical outcome (case), compared with oxycarbamazepine” value (adults with ADHD; person, switched to carbamazepine) is listed as “less effective”, the “typical dose for treating epileptic seizures” value ([1]; in vivo) is listed as 400 to 800 mg/day and the “Minimum Dose/day effective for mood stabilisation or treatment of epileptic symptoms or events” value (“Minimum Dose/day effective” below) [1] is listed as 400 mg.

In the case of `COc1cc2c(cc1OC)C(=O)C(CC1CCN(Cc3ccccc3)CC1)C2` (stereo not shown) [Donepezil], the “side effects in MCI (reports)” value ([2]; human, in vivo) is given as “significant side effects” and the “effect in mild cognitive impairment (reports)” value [2] is given as “only minor, short-term benefits”.

For `NC(=O)N1c2ccccc2CC(=O)c2ccccc21` [Oxcarbazepine], the “clinical outcome (case)” value (adults with ADHD; person, ADHD, 37.5 mg oxycarbamazepine added to dexamphetamine 40 mg and 'sodium to operate' 400 mg daily) is given as “significant improvement in their cognitive functioning”, the “clinical outcome (case)” value (adults with ADHD; person, oxycarbamazepine dose increased to 75 mg) is given as “improved again” and the “Minimum Dose/day effective” value [1] is given as 600 mg.

In the case of `O=C1NC(=O)C(c2ccccc2)(c2ccccc2)N1` [Phenytoin], the “course of benefit on continued dosing” value (adults with ADHD; 50 mg phenytoin dose with dexamphetamine, many clinical situations) is reported as “loss of benefit of the therapy over the proceeding weeks and months”, the “clinical outcome (case)” value (adults with ADHD; adult female, phenytoin 50 mg added to sodium valproate 100 mg and methylphenidate) is reported as “Pervasive and robust psychosocial improvement” and the “group outcome of combination therapy” value (adults with ADHD; Methylphenidate 40 mg/d, Valproate 100 mg/d, Phenytoin 50 mg/d) is reported as “successfully treated”. For the same molecule, the “group outcome of combination therapy” value (adults with ADHD; dexamphetamine 20-45 mg/d, Valproate 100-400 mg/d, Phenytoin 12.5-50 mg/d) was “successfully treated”, the “group outcome of combination therapy” value (adults with ADHD; dexamphetamine 20-75 mg/d with Phenytoin 1-75 mg/d) was “successfully treated” and the “group outcome of combination therapy” value (adults with ADHD; methylphenidate 15-105 mg/d with Phenytoin 25-50 mg/d) was “successfully treated”. For the same molecule, the “clinical outcome (case)” value (adults with ADHD; person, ADHD, phenytoin 30 mg added to dexamphetamine) was “improvement in ability to read and sustain enjoyable conversation”, the “clinical outcome (case)” value (adults with ADHD; person, 12.5 mg phenytoin added to sodium valproate 100 mg and dexamphetamine) was “Significant improvement in ability to maintain egocentric eye gaze and cognition” and the “clinical outcome (case)” value (adults with ADHD; person, 50 mg phenytoin added to methylphenidate 120 mg per day) was “improved cognition with increased confidence in interpersonal relationships”. The “clinical outcome (case)” value (adults with ADHD; person, phenytoin 20 mg per day added to sodium valproate and dexamphetamine) was “further improvement of the sequencing and organisation of thoughts”, the “clinical outcome (case)” value (adults with ADHD; person, phenytoin 50 mg later 25 mg added to dexamphetamine and sodium valproate 200 mg) was “immediate improvement of stability of affect and clarity of thinking” and the “clinical outcome (case)” value ([3]; phenytoin 25 mg added to dexamphetamine 25 mg, atomexetine 60 mg, sodium valproate 150 mg) was “improvement in coordination”. For the same molecule, the “fixations and saccadic eye movements after treatment” value ([4]; infrared eye tracking) was “enhanced”, the “clinical outcome (case)” value ([4]; person, ten-year Parkinson's disease) was “improved verbal fluency, enhanced and less effortful social connection and eye contact” and the “time to noted improvement” value ([4]; person) was 2 to 3 days. The “clinical outcome (case)” value [5, 11] was “remarkable improvement in their cognitive functioning”, the “rapid automatic naming and Alzheimer's Quick Test (AQT)” value [5, 11] was “significant improvement in their functioning” and the “clinical outcome (case)” value ([5]; social withdrawal, phenytoin 12.5 mg daily) was “able to socially interact in a more meaningful way”. The “clinical outcome (case)” value ([5]; phenytoin 10 mg added to low dose sodium valproate) was “more robust improvement on either medication alone”, the “clinical outcome (case)” value ([5]; phenytoin 50 mg for two weeks) was “loss of the therapeutic benefit and general impairment” and the “clinical outcome (case)” value ([5]; phenytoin increased to 25 mg, over 6 to 8 weeks) was “loss of the benefits”. For the same molecule, the “clinical outcome (case)” value [6] was “improved self organisation and ability to plan ahead without effort” and the “Minimum Dose/day effective” value [1] was 200 mg.

In the case of `CCN(C)C(=O)Oc1cccc([C@H](C)N(C)C)c1` [Rivastigmine], the “effect in mild cognitive impairment (reports)” value [2] is listed as “failed to stop or slow progression to Alzheimer's disease or improve cognitive function”.

In the case of `CC1(C)O[C@@H]2[C@@H](CO[C@@]3(COS(N)(=O)=O)OC(C)(C)O[C@@H]23)O1` [Topiramate, 2,3:4,5-Bis-O-(1-methylethylidene)-beta-D-fructopyranose sulfamate], the “group outcome of combination therapy” value (adults with ADHD; dexamphetamine 30-80 mg/d with Topiramate 12.5-50 mg/d) is reported as “successfully treated”, the “group outcome of combination therapy” value (adults with ADHD; median 40 mg/d Dexamphetamine, 120 mg/d Sodium Valproate, 25 mg/d Topiramate) is reported as “successfully treated” and the “group outcome of combination therapy” value (adults with ADHD; methylphenidate 40-55 mg/d with Topiramate 12-37.5 mg/d) is reported as “successfully treated”. The “clinical outcome (case)” value (adults with ADHD; person, ADHD, 25 mg topiramate added to dexamphetamine 30 mg) was “ability to complete tasks, improvement in cognition”, the “clinical outcome (case)” value (adults with ADHD; person, 25 mg topiramate added to oros extended release methylphenidate) was “improved organisation, cognition, enhanced interpersonal functioning, and ability to sustain egocentric eye gaze” and the “clinical outcome (case)” value (adults with ADHD; person, topiramate 25 mg added to sodium valproate 300 mg and dexamphetamine 20 mg) was “Further improvements in interpersonal professional functioning”. For the same molecule, the “clinical outcome (case)” value [7] was “significant improvement”, the “target dose for controlling epileptic seizures” value ([1]; in vivo) was 100 to 500 mg/day and the “Minimum Dose/day effective” value [1] was 100 mg. The “clinical outcome (case)” value [8] was “improved organisation, enhanced interpersonal functioning, improved cognition and able to sustain egocentric eye gaze”.

In the case of `NS(=O)(=O)Cc1noc2ccccc12` [Zonisamide], the “Minimum Dose/day effective” value [1] is listed as 200 mg.

With `CNCC[C@@H](Oc1ccccc1C)c1ccccc1` [atomexetine, (3R)—N-methyl-3-(2-methylphenoxy)-3-phenyl-propan-1-amine] the “clinical outcome (case)” value ([3]; dexamphetamine 25 mg daily augmented with atomexetine 60 mg and sodium valproate 150 mg) was “Significant improvement in psychosocial functioning”.

In the case of `C[C@H](N)Cc1ccccc1` [dexamphetamine], the “stability and functional benefit (case)” value [9] is listed as “not noted” and the “use alone in treatment of amphetamine and cocaine addiction” value [10] is listed as “unhelpful”.
